Measurements from patent US10822325B2, “Human GLUT5 specific inhibitors and methods of treatment” (UNM RAINFOREST INNOVATIONS, priority 2015, dated 2020).
Entries after “also recorded” stand apart in the source; their conditions may differ.

Columns and labels:
human GLUT3 = target: T1, human GLUT3 (Homo sapiens, UniProt P11169); test: Glucose entrance counter-flow transport in GLUT3 proteoliposomes; type: biochemical; settings: 2 mM compound
T1 construct: Full length DNA was subcloned into pFastBac1 (Life Technologies) vector with a N-terminal hexahistidine tag; hexahistidine (N); made in house; host or cells: Sf21 insect cells (baculovirus, pFastBac1)
T1 sequence (P11169 1-496): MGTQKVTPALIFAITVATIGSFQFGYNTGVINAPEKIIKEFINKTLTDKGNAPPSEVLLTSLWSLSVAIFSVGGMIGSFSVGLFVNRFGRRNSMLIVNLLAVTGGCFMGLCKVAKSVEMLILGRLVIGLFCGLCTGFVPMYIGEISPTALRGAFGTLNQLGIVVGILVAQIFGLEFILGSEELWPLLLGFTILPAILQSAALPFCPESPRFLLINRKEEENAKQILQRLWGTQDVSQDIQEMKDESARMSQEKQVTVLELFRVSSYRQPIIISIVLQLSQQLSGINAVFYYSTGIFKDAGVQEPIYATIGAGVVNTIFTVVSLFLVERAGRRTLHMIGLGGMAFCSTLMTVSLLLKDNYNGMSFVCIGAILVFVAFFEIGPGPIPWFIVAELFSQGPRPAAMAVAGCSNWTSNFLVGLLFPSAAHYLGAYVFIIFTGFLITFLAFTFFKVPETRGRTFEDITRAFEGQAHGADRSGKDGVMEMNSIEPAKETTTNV
Description: (§1) cDNAs of GLUT1, 3, 4 and 5 were purchased from Open Biosystems (GE Healthcare). cDNAs of GLUT2 was a gift from Prof. Graeme Bell at University of Chicago. Full length DNA was subcloned into pFastBac1 (Life Technologies) vector with a N-terminal hexahistidine tag. Bacmids were generated in DH10Bac E. coli cells (Life Technologies). Baculoviruses were produced using Cellfectin II Reagent and amplified in Sf21 insect cells (Life Technologies). Cells were maintained at 26° C., and P1 (10^6 pfu/mL) was collected from infected cells after 72 hours. SF21 cells were propagated in HyClone SFX-Insect media (GE Healthcare), supplemented with 5% fetal bovine serum (Biowest), 4.8 mM glutamine, antibiotics (100 units/mL Penicillin G and 100 μg/mL streptomycin sulfate) and amphotericin B (2.5 μg/mL). […]
(§2) For the entrance counterflow transport in proteoliposomes, the assay was started by the addition of 5 μL proteoliposomes solution (OD600 nm ˜30) to 200 μL, assay solution, containing 10 μM ^14C-radiolabeled glucose (for GLUT1 wild-type or F379H mutant and GLUT2-4) or fructose (for GLUT5 wild-type or H387F mutant and GLUT2) (Moravek Biochemicals) in 100 mM KPi buffer at pH 7.5. After one minute (or different specified time points when the time-dependent counter-flow transport activity was measured), the transport was stopped with ice-chilled quench buffer [0.1 M KPi (pH 5.5) and 0.1 M lithium chloride]. […]

human GLUT2 = target: T2, human GLUT2 (Homo sapiens, UniProt P11168); test: Glucose or fructose entrance counter-flow transport in GLUT2 proteoliposomes; type: biochemical; settings: 2 mM compound
T2 construct: Full length DNA was subcloned into pFastBac1 (Life Technologies) vector with a N-terminal hexahistidine tag; hexahistidine (N); made in house; host or cells: Sf21 insect cells (baculovirus, pFastBac1)
T2 sequence (P11168 1-524): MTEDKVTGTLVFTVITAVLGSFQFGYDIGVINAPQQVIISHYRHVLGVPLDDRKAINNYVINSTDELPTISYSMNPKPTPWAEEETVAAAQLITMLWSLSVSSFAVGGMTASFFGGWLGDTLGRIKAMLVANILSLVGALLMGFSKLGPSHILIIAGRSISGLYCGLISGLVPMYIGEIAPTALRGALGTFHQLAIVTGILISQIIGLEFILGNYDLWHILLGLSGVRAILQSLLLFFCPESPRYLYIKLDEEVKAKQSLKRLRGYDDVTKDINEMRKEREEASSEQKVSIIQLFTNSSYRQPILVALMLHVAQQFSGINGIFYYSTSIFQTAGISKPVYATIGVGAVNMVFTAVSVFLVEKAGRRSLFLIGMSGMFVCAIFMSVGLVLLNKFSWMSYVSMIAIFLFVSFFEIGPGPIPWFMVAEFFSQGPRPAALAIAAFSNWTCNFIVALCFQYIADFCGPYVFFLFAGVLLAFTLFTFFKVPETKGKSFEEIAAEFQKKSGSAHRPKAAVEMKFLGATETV
Description: as §1, §2

Question: For CS(=O)(=O)c1ccc(Nc2ccc3c(c2)OCO3)c([N+](=O)[O-])c1 [MSNBA, N-[4-(methylsulfonyl)-2-nitrophenyl]-1,3-benzodioxol-5-amine], which “effect on GLUT3 glucose transport” value (human GLUT3) is on record?
Answer: did not affect; also recorded: did not influence

Question: What about the “effect on GLUT2 fructose transport” value (human GLUT2; fructose as substrate) of the same compound?
Answer: did not affect; also recorded: did not influence

Question: And the “effect on GLUT2 glucose transport” value (human GLUT2; glucose as substrate)?
Answer: did not influence; also recorded: did not affect
